Results taken from patent US20010007856A1, “METHOD FOR PREVENTING AND TREATING AT A SUPERACUTE PHASE, AGAINST NEUROLOGICAL DEFICITS OR NEURONAL DEATH IN BRAIN ISCHEMIA AND PATHOLOGICAL CONDITIONS” (priority 1997, published 2001).
Read-outs that look alike come from different tables or passages of the source.

What was measured:
physchem = format: physicochemical
Text: (§1) L-threo-DOPS, whose molecular formula is C9H11NO5, is white or light brown crystals or crystalline powder with no taste or odor. […] It is difficult to measure a clear melting point or decomposition point for L-threo-DOPS. […] DL-threo-DOPS, which contains 50% L-threo-DOPS, can also be used in this invention. Hereafter, L-threo-DOPS and DL-threo-DOPS are generically denoted as “threo-DOPS”.

solubility (descriptive) = format: physicochemical
Text: as §1

[1] = test system: middle brain artery (MC) occulusion model Wistar rats; test: transient cerebral ischemia, middle brain artery (MC) occlusion model, infarction volume; format: in vivo; settings: for reduction of size of cerebral infarction: MC occlusion 1 hour
[2] = test system: patients with brain ischemia (subarachnoid hemorrhage, cerebral infarction, brain injury, brain hemorrhage); settings: human, in vivo
Protocol: In order further to examine the neuroprotective effect in cerebral ischemia indicated from the experiment, a clinical preliminary study was conducted.
After the neck clipping surgery, 500 mg/day of “DOPS” (registered trademark, Sumitomo Pharmaceuticals Co., Ltd., Japan) was administered for 5 days.
Neck clipping was conducted on the day of onset, when the patient's condition was Hunt & Kosnic Grade IV. From the third day after subarachnoid hemorrhage, 500 mg/day of “DOPS” (registered trademark) was administered for 5 days.
Neck clipping was conducted on the day of onset, when the patient's condition was Hunt & Kosnic Grade IV. Since consciousness disturbance (semicoma), hyperventilation, and reduced light reflex were observed on the sixth day after surgery, a diagnosis of impending cerebral herniation was established and 500 mg/day of “DOPS” (registered trademark) was administered for 5 days. […] Soon after discontinuation of administration, mydriasis was rapidly observed.
Left hemiplegia first appeared and consciousness disturbance (JCS:100) and mydriasis of the right eye were observed 2 days later. Immediately after that, external and internal decompressions was performed and 300 mg/day of “DOPS” (registered trademark) was simultaneously administered for 5 days.
From the time immediately after injury, the patient developed mydriasis in both eyes and deep coma due to brainstem hernia. […]

SD rats [3] = settings: oral, 3 months, cited from earlier work
beagle dogs [4] = settings: oral, 3 months; 200, 600, 2,000 mg/kg/day; cited from earlier work
rhesus monkeys [5] = settings: oral, 3 months; 300, 1,000, 3,000 mg/kg/day; cited from earlier work
SD rats [6] = settings: oral, 12 months, cited from earlier work
beagle dogs [7] = settings: oral, 12 months; 125, 500, 2,000 mg/kg/day; cited from earlier work
SD rats [8] = settings: oral, 60, 200, 600 mg/kg/day, cited from earlier work
rabbits = settings: oral; 30, 100, 300 mg/kg/day; cited from earlier work
SD rats [9] = settings: oral; 60, 200, 600 mg/kg/day; cited from earlier work
[10] = test system: guinea pigs (Hartley strain, male); settings: guinea pig, in vivo; cited from earlier work
cultured cells = settings: cited from earlier work
mice = settings: mouse, in vivo; cited from earlier work
Mice, ICR strain = settings: cited from earlier work; for LD50: mouse, in vivo
Rats, SD strain = settings: cited from earlier work
beagle dogs [11] = settings: cited from earlier work
rhesus monkeys [12] = settings: cited from earlier work
[13] = test system: SD rats (male and female); settings: oral; 60, 200, 600 mg/kg/day; cited from earlier work
microorganisms = settings: cited from earlier work
[14] = prior art feature; cited from earlier work

N[C@H](C(=O)O)[C@H](O)c1ccc(O)c(O)c1 [L-threo-DOPS, (−)-(2S, 3R)-2-amino-3-hydroxy-3-(3,4-dihydroxyphenyl) propionic acid]
pKa (physchem): 7.88 | solubility in ether, ethanol and glacial acetic acid (solubility (descriptive); ether, ethanol, glacial acetic acid): dissolves very little | solubility in water (solubility (descriptive); water): dissolves only slightly | reduction of size of cerebral infarction ([1]; L-threo-DOPS 400 mg/kg (+ BSZ 2 mg/kg) i.p. 30 minutes before occlusion, FIG. 1): about 40% | reduction of size of cerebral infarction ([1]; L-threo-DOPS 400 mg/kg (+ BSZ 2 mg/kg) i.p. one hour after occlusion, FIG. 2): about 40% | regression effect on cerebral infarction ([1]; MC occlusion 24 hours, L-threo-DOPS 400 mg/kg (+ BSZ 2 mg/kg) i.p. one hour after occlusion, FIG. 3): no regression effect was observed | adverse effects [2]: No adverse effects were observed | dose with suppressed voluntary motions, necrosis of kidney uriniferous tubuli, necrosis of cardiac muscles, etc. (SD rats [3]; 60, 300, 1,500 mg/kg/day): ≥ 60 mg/kg/day | dose with drooling (SD rats [3]): 1,500 mg/kg/day | dose with suppression of weight increases and such (SD rats [3]): ≥ 300 mg/kg/day | abnormality in various observations and testing evaluations (beagle dogs [4]): no abnormality was observed | abnormality in various observations and testing evaluations (rhesus monkeys [5]): no abnormality was observed | dose with suppression of weight increases, increase in thymus weight, necrosis of kidney uriniferous tubuli, degeneration of kidney glomeruli, etc. (SD rats [6]; 10, 30, 100, 300 mg/kg/day): ≥ 30 mg/kg/day | dose with drooling, myocarditis and calcification of cardiac muscles, etc. (SD rats [6]): ≥ 100 mg/kg/day | abnormality in various observations and testing evaluations (beagle dogs [7]): no abnormality was observed | other influence (SD rats [8]): No other influence was observed | dose with lower body weights of fetuses and increased occurrence of undulating ribs (SD rats [8]; restorable after birth): ≥ 200 mg/kg | influence on the rabbits (rabbits): no influence on the rabbits was observed | dose with shortening of the pregnancy period (SD rats [9]): 600 mg/kg | dose with suppression of neonatal development after birth (SD rats [9]): ≥ 60 mg/kg | other influence (SD rats [9]): No other influence was observed | Endodermoreaction [10]: negative | PCA reaction [10]: negative | intra-gel sedimentation reaction [10]: negative | systemic anaphylaxis reaction [10]: negative | mutagenicity, chromosome abnormality (cultured cells): no mutagenicity was observed | mutagenicity, micronucleus (mice): no mutagenicity was observed | general symptoms in acute toxicity (Mice, ICR strain; mice): reduced voluntary motions, deep breathing and bradypnea | LD50 (Mice, ICR strain; iv): >100 mg/kg | LD50 (Mice, ICR strain; po): >10000 mg/kg | LD50 (Mice, ICR strain): >10000 mg/kg | LD50 (Rats, SD strain; rat, in vivo, po): >10000 mg/kg | general symptoms in acute toxicity (Rats, SD strain; rats): reduced voluntary motions, deep breathing and bradypnea | LD50 (beagle dogs [11]; dog, in vivo, po): >5000 mg/kg | general symptoms in acute toxicity (beagle dogs [11]; dogs): no abnormal symptom was observed | LD50 (rhesus monkeys [12]; rhesus monkey, in vivo, po): >5000 mg/kg | general symptoms in acute toxicity (rhesus monkeys [12]; rhesus monkeys): no abnormal symptom was observed | influence on mating rate, conception rate, nidation number, embryo/neonate death, teratogenic actions or fetal development [13]: no influence was observed | mutagenicity, back mutation (microorganisms): no mutagenicity was observed

N[C@H](C(=O)O)[C@H](O)c1ccc(O)c(O)c1 [threo-DOPS]
passage through the blood-brain barrier [14]: passes through the blood-brain barrier into the brain
